Measured values from the NIST ThermoML archive (doi:10.1016/j.jct.2017.07.016).

Experiment: xn = mol fraction of the nth substance listed
Settings: 96.7 kPa, Liquid; for viscosity: Capillary tube (Ostwald / Ubbelohde) method; for mass density: Vibrating tube method

CCCCCCn1cc[n+](C)c1.[Cl-] [1-hexyl-3-methylimidazolium chloride] + c1ccncc1
Settings | mass density [kg/m3] | viscosity [mPa·s]
303.15 K, x1 = 0.145 | 1000.09 | 3.442
303.15 K, x1 = 0.281 | 1013.46 | 12.9
303.15 K, x1 = 0.369 | 1019.3 | 27.09
303.15 K, x1 = 0.477 | 1025.04 | 89.47
303.15 K, x1 = 0.608 | 1029.07 | 266.74
303.15 K, x1 = 0.778 | 1033.09 | 1015.3
303.15 K, x1 = 0.877 | 1034.58 | 1617.5
303.15 K, x1 = 1 | 1036.07 | 5718.5
308.15 K, x1 = 0.145 | 995.92 | 3.081
308.15 K, x1 = 0.281 | 1009.71 | 11.03
308.15 K, x1 = 0.369 | 1015.8 | 22.93
308.15 K, x1 = 0.477 | 1021.74 | 68.74
308.15 K, x1 = 0.608 | 1025.91 | 192.89
308.15 K, x1 = 0.778 | 1030.09 | 686.42
308.15 K, x1 = 0.877 | 1031.66 | 1126
308.15 K, x1 = 1 | 1033.22 | 3430.8
313.15 K, x1 = 0.145 | 991.76 | 2.785
313.15 K, x1 = 0.281 | 1006 | 9.532
313.15 K, x1 = 0.369 | 1012.3 | 19.12
313.15 K, x1 = 0.477 | 1018.45 | 53.91
313.15 K, x1 = 0.608 | 1022.78 | 144.2
313.15 K, x1 = 0.778 | 1027.11 | 476.57
313.15 K, x1 = 0.877 | 1028.74 | 773.43
313.15 K, x1 = 1 | 1030.38 | 2146.1
318.15 K, x1 = 0.145 | 987.59 | 2.533
318.15 K, x1 = 0.281 | 1002.31 | 8.293
318.15 K, x1 = 0.369 | 1008.82 | 16.07
318.15 K, x1 = 0.477 | 1015.17 | 43.07
318.15 K, x1 = 0.608 | 1019.67 | 109.94
318.15 K, x1 = 0.778 | 1024.17 | 341.19
318.15 K, x1 = 0.877 | 1025.86 | 528.89
318.15 K, x1 = 1 | 1027.56 | 1390.4
323.15 K, x1 = 0.145 | 983.43 | 2.307
323.15 K, x1 = 0.281 | 998.61 | 7.283
323.15 K, x1 = 0.369 | 1005.33 | 13.71
323.15 K, x1 = 0.477 | 1011.9 | 35.05
323.15 K, x1 = 0.608 | 1016.57 | 85.19
323.15 K, x1 = 0.778 | 1021.24 | 249.82
323.15 K, x1 = 0.877 | 1022.99 | 376.53
323.15 K, x1 = 1 | 1024.75 | 928.1
328.15 K, x1 = 0.145 | 979.27 | 2.128
328.15 K, x1 = 0.281 | 994.88 | 6.442
328.15 K, x1 = 0.369 | 1001.86 | 11.78
328.15 K, x1 = 0.477 | 1008.64 | 28.97
328.15 K, x1 = 0.608 | 1013.48 | 67.45
328.15 K, x1 = 0.778 | 1018.31 | 185.55
328.15 K, x1 = 0.877 | 1020.12 | 273.63
328.15 K, x1 = 1 | 1021.92 | 638.79
333.15 K, x1 = 0.145 | 975.09 | 1.956
333.15 K, x1 = 0.281 | 991.21 | 5.738
333.15 K, x1 = 0.369 | 998.39 | 10.23
333.15 K, x1 = 0.477 | 1005.4 | 24.13
333.15 K, x1 = 0.608 | 1010.39 | 53.7
333.15 K, x1 = 0.778 | 1015.38 | 141.51
333.15 K, x1 = 0.877 | 1017.26 | 203.81
333.15 K, x1 = 1 | 1019.13 | 453.59
338.15 K, x1 = 0.145 | 970.94 | 1.793
338.15 K, x1 = 0.281 | 987.55 | 5.141
338.15 K, x1 = 0.369 | 994.92 | 8.972
338.15 K, x1 = 0.477 | 1002.17 | 20.39
338.15 K, x1 = 0.608 | 1007.32 | 43.75
338.15 K, x1 = 0.778 | 1012.47 | 109.4
338.15 K, x1 = 0.877 | 1014.43 | 154.83
338.15 K, x1 = 1 | 1016.38 | 327.52
343.15 K, x1 = 0.145 | 966.81 | 1.686
343.15 K, x1 = 0.281 | 983.89 | 4.636
343.15 K, x1 = 0.369 | 991.46 | 7.907
343.15 K, x1 = 0.477 | 998.94 | 17.36
343.15 K, x1 = 0.608 | 1004.24 | 35.95
343.15 K, x1 = 0.778 | 1009.55 | 86.53
343.15 K, x1 = 0.877 | 1011.6 | 120.81
343.15 K, x1 = 1 | 1013.65 | 243.04
348.15 K, x1 = 0.145 | 962.62 | 1.57
348.15 K, x1 = 0.281 | 980.23 | 4.198
348.15 K, x1 = 0.369 | 988.01 | 6.978
348.15 K, x1 = 0.477 | 995.69 | 14.96
348.15 K, x1 = 0.608 | 1001.17 | 30.11
348.15 K, x1 = 0.778 | 1006.66 | 68.87
348.15 K, x1 = 0.877 | 1008.78 | 94.01
348.15 K, x1 = 1 | 1010.91 | 183.45
353.15 K, x1 = 0.145 | 958.42 | 1.451
353.15 K, x1 = 0.281 | 976.57 | 3.822
353.15 K, x1 = 0.369 | 984.56 | 6.279
353.15 K, x1 = 0.477 | 992.4 | 13
353.15 K, x1 = 0.608 | 998.08 | 25.29
353.15 K, x1 = 0.778 | 1003.77 | 56.47
353.15 K, x1 = 0.877 | 1005.97 | 75.17
353.15 K, x1 = 1 | 1008.18 | 140.06
